Measurements published in BigSolDB 2.1.

O=P(NCc1ccccc1)(Oc1ccccc1)Oc1ccccc1
solubility (mole fraction)
Conditions | in THF | in acetone | in acetonitrile | in chloroform | in dichloromethane | in ethyl acetate | in methanol | in methyl acetate | in toluene
288.15 K | – | – | – | 0.095 | 0.055 | – | – | 0.0168 | –
293.15 K | 0.0978 | 0.0447 | 0.0148 | 0.109 | 0.0724 | 0.0199 | 0.0111 | 0.0234 | 0.0109
298.15 K | 0.115 | 0.0587 | 0.0196 | 0.126 | 0.0965 | 0.0279 | 0.0158 | 0.0309 | 0.016
303.15 K | 0.132 | 0.0741 | 0.0264 | 0.143 | 0.126 | 0.0368 | 0.0231 | 0.0407 | 0.0228
308.15 K | 0.157 | 0.0986 | 0.0344 | 0.164 | 0.157 | 0.0484 | 0.0322 | 0.055 | 0.0312
313.15 K | 0.183 | 0.122 | 0.0431 | 0.191 | – | 0.0627 | 0.0449 | 0.0699 | 0.0428
318.15 K | 0.208 | 0.154 | 0.0591 | 0.218 | – | 0.0824 | 0.0629 | 0.094 | 0.0574
323.15 K | 0.24 | 0.198 | 0.0742 | 0.248 | – | 0.104 | 0.0875 | 0.122 | 0.0814
328.15 K | – | – | 0.0948 | 0.275 | – | 0.137 | 0.125 | – | 0.108
333.15 K | – | – | 0.122 | – | – | 0.182 | 0.166 | – | 0.146
338.15 K | – | – | 0.155 | – | – | – | – | – | 0.187
343.15 K | – | – | – | – | – | – | – | – | 0.243
